System: CD-1 mice
Test: In vivo efficacy test - marble burying
Parameters: species or system mouse
Conditions: male CD-1 mice, 10 and 30 mg/kg po, dosed 30 min prior to test; doses tested 1, 3, 10 and 30 mg/kg; one-way ANOVA with Dunnett's post-hoc test

Structure (SMILES): N#Cc1cc(Cl)cc(-c2cc(-c3ccc(F)cn3)ncn2)c1 [Example 17, 3-chloro-5-[6-(5-fluoropyridin-2-yl)pyrimidin-4-yl]benzonitrile]
- number of marbles buried versus vehicle group: statistically significant decrease in the number of marbles buried
